Columns and labels:
Type in all cases: cell-based, human
PAECs = assay: Caspase 3/7 assay, PAECs
Method: (§1) Caspase 3,7 activity was quantified using the Caspase-Glo 3/7 Assay (Promega), according to manufacturer's instructions. Briefly, cells were plated in triplicate in 96-well plates and transfected with the appropriate oligonucleotide. Forty-eight hours after transfection, cells were cultured in the presence or absence of serum for twenty-four hours. Cells were then incubated for 1 h with the caspase substrates, and luminescence was quantified.

PASMCs [1] = assay: Caspase 3/7 assay, PASMCs
Method: as §1

STAT3 = STAT3 phosphorylation in PASMCs (conditioned media from PAECs or endothelin-1; immunoblot); settings: conditioned media from transfected PAECs (mimic: normoxic, tiny-LNA: hypoxic conditioning)
Method: (§2) (FIG. 40A) A schematic diagram of co-culture experiments: conditioned media from transfected PAECs (miRNA, anti-miRNA, tiny-LNA or siRNA under normoxic or hypoxic conditions) were filtered and applied onto naïve PASMCs cultured in matrigel. At specific times, PASMCs or PASMC-matrigel cultures were arrested and analyzed for STAT3 activation (phosphorylation) or contraction, respectively.
(§3) 50000 PASMC were embedded in 100 ul of matrix gel as previous described (Gagiolli et al) and plated into well of a 96 well plate. After 1 h at 37° C., these matrices were overlaid with 100 ul of conditioned PAECs serum-free medium (transfected with siRNA, miRNA or anti-miRNA and supplemented with Ambriesentan 10 uM). Every 12 h, medium was changed and at day 4 the gels were photographed and the relative diameter of the well and the gel were measured using ImageJ. The percentage contraction was calculated using the formula 100*(well diameter−gel diamter)/well diameter. For the co-culture experiment, conditioned media from PAEC transfected as indicated were applied on PASMCs or Fibroblast previously starved (24 h). Cells were collected at different time and analyzed by western blotting.
Cells were lysed in RIPA buffer (Santa Cruz Biotechnology) and the protein concentration determined using a Bradford assay (Biorad). Protein lysate ([…]) were resolved by SDS-PAGE and transferred onto a PVDF membrane (Biorad). Membranes were blocked in 5% non-fat milk in TN buffer (50 mM Tris-HCl pH 7.4, 150 mM NaCl) and incubated in the presence of the primary and then secondary antibodies. After washing in TN buffer containing 0.1% Tween, immunoreactive bands were visualized with the ECL system (Amersham Biosciences). […] Primary antibodies for STAT3 (#9139) and P-STAT3 (Tyr-705; #9145) were purchased from Cell Signaling. Primary antibodies against actin (ab 3280), was obtained from Abcam. Appropriate secondary antibodies (anti-rabbit and anti-mouse) coupled to HRP were used (Santa Cruz Biotechnology).

PASMCs [2] = assay: Contraction assay of PASMCs in matrigel; settings: conditioned media from transfected PAECs; rosiglitazone in PAECs; ambrisentan on PASMCs
Method: as §2, §3

PAAFs = assay: ECM remodeling experiment (naïve PAAFs plated on remodeled ECM)
Method: After the different treatment cells were fixed with PBS/PFA 4% for 10 min and permeabilized with PBS/Triton 100×0.1% for 10 min. Then cells were incubated with anti-YAP1 (#4912; 1/100; Cell signaling) at 4° C. overnight. Secondary antibodies coupled with Alexa-594 (Life Technologies) were used at 1:500. Nuclei were counterstained with DAPI (Sigma).
Following treatment, PAAFs were plated atop soft matrices (see below) in normal growth medium supplemented with 0.5% FBS. After three days, 10 ug/mL of puromycin was added to the growth medium for 48 hours to detach the cells from the matrix. Matrices were washed 3 times (PBS). Naïve PAAFs were then plated on top of these matrices supplemented with normal growth medium 0.5% FBS or harvested for assessment of collagen crosslinking (Picrosirius Red stain). Sixteen hours later, cells were harvested for immunofluorescence experiments or RNA extraction.
Picrosirius Red stain was achieved through the use of 5 μm paraffin sections stained with 0.1% Picrosirius Red (Direct Red80, Sigma-Aldrich) and counterstained with Weigert's hematoxylin to reveal fibrillar collagen. The sections were then serially imaged using with an analyzer and polarizer oriented parallel and orthogonal to each other. Microscope conditions (lamp brightness, condenser opening, objective, zoom, exposure time, and gain parameters) were constant throughout the imaging of all samples. A minimal threshold was set on appropriate control sections for each experiment in which only the light passing through the orthogonally-oriented polarizers representing fibrous structures (i.e., excluding residual light from the black background) was included. The threshold was maintained for all images across all conditions within each experiment. The area of the transferred regions that was covered by the thresholded light was calculated and at least 10 sections/vessel per condition were averaged together (Image J software).

Substance: tiny-LNA-130: fully LNA-modified tiny LNA oligonucleotide 5′-ATTGCACT-3′ (SEQ ID NO: 3) complementary to the seed region of the miR-130/301 family (all LNA, backbone and methylation of C not given here)
- caspase 3/7 activity (PAECs; 24 h serum deprivation): partially protected cells from caspase 3/7 induction
- caspase 3/7 activity (PAECs; serum-replete conditions): No significant modulation
- caspase 3/7 activity (PASMCs [1]; 24 h serum deprivation): no significant modulation
- caspase 3/7 activity (PASMCs [1]; serum-replete conditions): No significant modulation
- STAT3 phosphorylation in PASMCs (STAT3): abrogated
- actinomyosin contraction of PASMCs (PASMCs [2]): abrogated
- collagen crosslinking of remodeled ECM (PAAFs; Picrosirius Red): reversed
- collagen, LOX, CTGF, and POU5F1/OCT4 in naïve cells plated on remodeled ECM (PAAFs; RT-qPCR): down-regulated
- miR-130/301 in naïve cells plated on remodeled ECM (PAAFs; RT-qPCR): down-regulated

Source: US20170226507A1, “COORDINATE CONTROL OF PATHOGENIC SIGNALING BY THE MIR-130/301 FAMILY IN PULMONARY HYPERTENSION AND FIBROPROLIFERATIVE DISEASES” (The Brigham and Women's Hospital, Inc., priority 2014, published 2017)
